Assay results as given in US20070208087A1, “Compounds, compositions and methods for the treatment of inflammatory diseases” (priority 2001, published 2007).
Where “and” joins values, the source holds several entries; their conditions need not be identical. Identical values can stand only once. Like-named read-outs stand apart in the source and are kept apart here.

Experiments:
Microglial cells = assay: Dose response inhibition of NO release from microglia, 0.75-200 μM (Example 8); type: cell-based
Experimental: This experiment was designed to determine dose response inhibition of NO release from microglia by bis- and tris-dihydroxyaryl compounds when stimulated with LPS/IFNγ. […] This experiment is designed to determine a dose response for various bis- and tris-dihydroxyaryl compounds. Microglial cells were plated into 96 well plates at 1×10^5 cells/ml. […] The doses tested were: 0.75 μM, 1.56 μM, 3.125 μM, 6.25 μM, 12.5 μM, 25 μM, 50 μM, 100 μM and 200 μM. Nitric oxide release was measured after 48 hours using the Griess reaction.

microglia = assay: Ranking of NO release inhibition (Example 12); type: cell-based; details: Microglia, ranking table
Text: The bis- and tris-dihydroxyaryl compounds were ranked in order of effectiveness for the inhibition of NO release as set out in Table 8.

[1] = dose 0.75 μM, 48 hours, single replicates
[2] = dose 1.56 μM, 48 hours, single replicates
[3] = dose 3.125 μM, 48 hours, single replicates
[4] = dose 6.25 μM, 48 hours, single replicates
[5] = dose 12.5 μM, 48 hours, single replicates
[6] = dose 25 μM, 48 hours, single replicates
[7] = dose 50 μM, 48 hours, single replicates
[8] = dose 100 μM, 48 hours, single replicates
[9] = dose 200 μM, 48 hours, single replicates

Question: How did the inhibition at 1.56 µM (Microglial cells; Microglia, 48 h, dose 1.56 μM) turn out when `O=C(N[C@@H]1CCCC[C@H]1NC(=O)c1ccc(O)c(O)c1)c1ccc(O)c(O)c1` (relative stereo) [Compound 26, N,N′-bis(3,4-dihydroxybenzoyl)-trans-1,2-diaminocyclohexane] was run?
Answer: 6%

Question: What about the inhibition at 3.125 µM (Microglial cells; Microglia, 48 h, dose 3.125 μM) of the same compound?
Answer: 5.78%

Question: And the inhibition at 6.25 µM (Microglial cells; Microglia, 48 h, dose 6.25 μM, 48 hours, read-out: Avg % Inhibition)?
Answer: 0.428%

Question: And the inhibition at 12.5 µM (Microglial cells; Microglia, 48 h, dose 12.5 μM, 48 hours, read-out: Avg % Inhibition)?
Answer: 10.1%

Question: And the inhibition at 12.5 µM (Microglial cells; Microglia, 48 h, dose 12.5 μM, 48 hours, single replicates, read-out: % inhibition)?
Answer: 10.1%

Question: What about the inhibition at 25 µM (Microglial cells; Microglia, 48 h, dose 25 μM, 48 hours, read-out: Avg % Inhibition) of the same compound?
Answer: 10.1%

Question: And the inhibition at 25 µM (Microglial cells; Microglia, 48 h, dose 25 μM, 48 hours, single replicates, read-out: % inhibition)?
Answer: 13.3%

Question: And the inhibition at 50 µM (Microglial cells; Microglia, 48 h, dose 50 μM, 48 hours, read-out: Avg % Inhibition)?
Answer: 19.7%

Question: What about the inhibition at 50 µM (Microglial cells; Microglia, 48 h, dose 50 μM, 48 hours, single replicates, read-out: % inhibition) of the same compound?
Answer: 19.7%

Question: And the inhibition at 100 µM (Microglial cells; Microglia, 48 h, dose 100 μM, 48 hours, read-out: Avg % Inhibition)?
Answer: 23.6%

Question: And the inhibition at 200 µM (Microglial cells; Microglia, 48 h, dose 200 μM, 48 hours, read-out: Avg % Inhibition)?
Answer: 44.5%

Question: What about the inhibition at 200 µM (Microglial cells; Microglia, 48 h, dose 200 μM, 48 hours, single replicates, read-out: % inhibition) of the same compound?
Answer: 46%

Question: And the “μM NO release Avg” value (Microglial cells; dose 0.75 μM, 48 hours)?
Answer: 24.756 µM

Question: And the “% inhibition” value (Microglial cells; [1])?
Answer: 1.07% and −4.91% and −1.50%

Question: And the “OD values (printed under head μM NO release)” value (Microglial cells; [1])?
Answer: 0.21 and 0.206 and 0.215

Question: And the “μM NO release” value (Microglial cells; [1])?
Answer: 24.688 µM and 24.063 µM and 25.517 µM

Question: What about the “μM NO release Avg” value (Microglial cells; dose 1.56 μM, 48 hours) of the same compound?
Answer: 22.865 µM

Question: What about the “% inhibition” value (Microglial cells; [2]) of the same compound?
Answer: 9.42% and 2.36% and 6.21%

Question: And the “OD values (printed under head μM NO release)” value (Microglial cells; [2])?
Answer: 0.198 and 0.193 and 0.204

Question: And the “μM NO release” value (Microglial cells; [2])?
Answer: 22.813 µM and 22.031 µM and 23.750 µM

Question: And the “μM NO release Avg” value (Microglial cells; dose 3.125 μM, 48 hours)?
Answer: 22.917 µM

Question: And the “% inhibition” value (Microglial cells; [3])?
Answer: 8.14% and 2.36%

Question: And the “OD values (printed under head μM NO release)” value (Microglial cells; [3])?
Answer: 0.197 and 0.195 and 0.204

Question: What about the “μM NO release” value (Microglial cells; [3]) of the same compound?
Answer: 22.656 µM and 22.344 µM and 23.750 µM

Question: What about the “μM NO release Avg” value (Microglial cells; dose 6.25 μM, 48 hours) of the same compound?
Answer: 24.219 µM

Question: What about the “% inhibition” value (Microglial cells; [4]) of the same compound?
Answer: 3.64% and −2.14% and −0.21%

Question: What about the “OD values (printed under head μM NO release)” value (Microglial cells; [4]) of the same compound?
Answer: 0.208 and 0.202 and 0.211

Question: What about the “μM NO release” value (Microglial cells; [4]) of the same compound?
Answer: 24.375 µM and 23.438 µM and 24.844 µM

Question: What about the “μM NO release Avg” value (Microglial cells; dose 12.5 μM, 48 hours) of the same compound?
Answer: 21.875 µM

Question: What about the “OD values (printed under head μM NO release)” value (Microglial cells; [5]) of the same compound?
Answer: 0.192

Question: And the “μM NO release” value (Microglial cells; [5])?
Answer: 21.875 µM

Question: And the “μM NO release Avg” value (Microglial cells; dose 25 μM, 48 hours)?
Answer: 21.875 µM

Question: What about the “OD values (printed under head μM NO release)” value (Microglial cells; [6]) of the same compound?
Answer: 0.197 and 0.187 and 0.192

Question: And the “μM NO release” value (Microglial cells; [6])?
Answer: 22.656 µM and 21.094 µM and 21.875 µM

Question: What about the “μM NO release Avg” value (Microglial cells; dose 50 μM, 48 hours) of the same compound?
Answer: 19.531 µM

Question: And the “% inhibition” value (Microglial cells; [7])?
Answer: 18.42% and 20.99%

Question: What about the “OD values (printed under head μM NO release)” value (Microglial cells; [7]) of the same compound?
Answer: 0.175 and 0.177 and 0.179

Question: What about the “μM NO release” value (Microglial cells; [7]) of the same compound?
Answer: 19.219 µM and 19.531 µM and 19.844 µM

Question: What about the “μM NO release Avg” value (Microglial cells; dose 100 μM, 48 hours) of the same compound?
Answer: 18.594 µM

Question: What about the “% inhibition” value (Microglial cells; [8]) of the same compound?
Answer: 17.13% and 19.06% and 34.48%

Question: And the “OD values (printed under head μM NO release)” value (Microglial cells; [8])?
Answer: 0.154 and 0.181 and 0.178

Question: What about the “μM NO release” value (Microglial cells; [8]) of the same compound?
Answer: 15.938 µM and 20.156 µM and 19.688 µM

Question: What about the “μM NO release Avg” value (Microglial cells; dose 200 μM, 48 hours) of the same compound?
Answer: 13.490 µM

Question: And the “% inhibition” value (Microglial cells; [9])?
Answer: 40.26% and 47.32%

Question: What about the “OD values (printed under head μM NO release)” value (Microglial cells; [9]) of the same compound?
Answer: 0.134 and 0.136 and 0.145

Question: And the “μM NO release” value (Microglial cells; [9])?
Answer: 12.813 µM and 13.125 µM and 14.531 µM

Question: What about the inhibition at 50 µM (microglia) of the same compound?
Answer: 20%
